# Where a name gives a salt, the structure may show the parent alone.
# Target: rat SAPK (isoform b) (Rattus norvegicus, UniProt P49187)
# Assay: SAPK FlashPlate Assay (c-Jun phosphorylation)
# Type: biochemical
# Settings: purified rat SAPK activated by MEKK-1/MKK4, GST-c-Jun substrate, 33P-ATP, 30 minutes at 37° C.
# Description: "IC50 " refers to the concentration of a particular 4-aryloxindole or 4-heteroaryloxidole required to inhibit 50% of the SAPK protein kinase catalytic activity. IC50 can be measured, inter alia, using the assay described herein in Example 66.
# Human JNK is highly homologous to rat SAPK. To measure the inhibitory activity of test compounds, the compounds were tested in the rat SAPK assay.
# For the SAPK assay, purified GST-c-Jun (a chimeric protein containing c-Jun, a natural substrate of JNK) was coated on 96 well FlashPlates (New England Nuclear, Boston, Mass.). Purified rat SAPK (isoform b, Kyriakis et al. supra) was preincubated with preparations containing MEKK-1 and MKK4 for 30 minutes at 37° C. in assay buffer containing 25 mM HEPES, pH 7.5, 150 mM NaCl, 20 mM MgCl2, 2 mM DTT, 0.001% Tween 20, 1 mM ATP freshly added. In the preincubation step, MEKK-1 phosphorylates and activates MKK4, which in turn phosphorylates and activates SAPK. The activated SAPK was then added to the c-Jun coated FlashPlates along with ^33 P-ATP ([…] per reaction) and test compounds. The plates were incubated for 30 minutes at 37° C., then washed with PBS, 0.01% Tween 20, and counted in the Topcount scintillation counter (Packard Instrument Co., Downers Grove, Ill.). Dilutions of compounds were tested in duplicate in each assay. The percent inhibition of c-Jun phosphorylation (a measure of inhibition of SAPK activity) was determined by the following formula: [formula]
# where "test compound" refers to the average counts per minute of the test duplicates, "nonspecific" refers to the average counts per minute when no SAPK was added, and "total" refers to the average counts per minute when no compound was added.
# Sequence of rat SAPK (isoform b) (P49187 whole entry, canonical isoform): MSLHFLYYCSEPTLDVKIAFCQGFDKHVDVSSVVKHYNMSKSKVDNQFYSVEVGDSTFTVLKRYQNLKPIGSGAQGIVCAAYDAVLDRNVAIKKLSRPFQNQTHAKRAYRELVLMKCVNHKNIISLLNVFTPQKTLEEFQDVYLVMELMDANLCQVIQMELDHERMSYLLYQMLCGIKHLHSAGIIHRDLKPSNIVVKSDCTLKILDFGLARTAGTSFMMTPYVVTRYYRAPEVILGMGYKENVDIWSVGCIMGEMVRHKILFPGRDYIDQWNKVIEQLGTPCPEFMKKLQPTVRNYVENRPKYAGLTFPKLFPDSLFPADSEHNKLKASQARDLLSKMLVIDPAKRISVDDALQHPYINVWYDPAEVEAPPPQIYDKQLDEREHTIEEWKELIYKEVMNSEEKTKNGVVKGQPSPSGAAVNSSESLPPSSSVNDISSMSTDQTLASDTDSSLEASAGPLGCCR
row,Structure (SMILES),IC50
1,"Nc1cccc(-c2cccc3c2/C(=C/c2ccc[nH]2)C(=O)N3)c1 [Compound C, (Z)-4-(3-Aminophenyl)-1,3-dihydro-3-[(1H-pyrrol-2-yl)methylene]-2H-indol-2-one]",< 0.15 µM
2,"COc1cc[nH]c1/C=C1\C(=O)Nc2cccc(-c3cccc(N)c3)c21 [EE, (Z)-4-(3-Aminophenyl)-1,3-dihydro-3-[(3-methoxy-1H-pyrrol-2-yl)methylene]-2H-indol-2-one]",< 0.15 µM
3,"COc1cc[nH]c1/C=C1\C(=O)Nc2cccc(-c3ccccc3)c21 [GG, (Z)-1,3-Dihydro-4-phenyl-3-[(3-methoxy-1H-pyrrol-2-yl)methylene]-2H-indol-2-one]",< 0.15 µM
4,"COc1cc[nH]c1/C=C1\C(=O)Nc2ccc([N+](=O)[O-])c(-c3ccc(O)cc3)c21 [JJ, (Z)-1,3-Dihydro-4-(4-hydroxyphenyl)-3-[(3-methoxy-1H-pyrrol-2-yl)methylene]-5-nitro-2H-indol-2-one]",< 0.15 µM
5,"COc1cc[nH]c1/C=C1\C(=O)Nc2ccc([N+](=O)[O-])c(-c3ccccc3)c21 [KK, (Z)-1,3-Dihydro-3-[(3-methoxy-1H-pyrrol-2-yl)methylene]-5-nitro-4-phenyl-2H-indol-2-one]",< 0.15 µM
6,"COc1cc[nH]c1/C=C1\C(=O)Nc2ccc(NC(=O)Cc3cccs3)c(-c3ccccc3)c21 [LL, (Z)-N-[2,3-Dihydro-3-[(3-methoxy-1H-pyrrol-2-yl)methylene]-2-oxo-4-phenyl-1H-indol-5-yl]-2-thiopheneacetamide]",< 0.15 µM
7,"COc1cc[nH]c1/C=C1\C(=O)Nc2cccc(-c3ccc4[nH]ccc4c3)c21 [MM, (Z)-1,3-Dihydro-4-(5-indolyl)-3-[(3-methoxy-1H-pyrrol-2-yl)methylene]-2H-indol-2-one]",< 0.15 µM
8,"COc1cc[nH]c1/C=C1\C(=O)Nc2ccc(N)c(-c3ccc(O)cc3)c21 [NN, (Z)-5-Amino-1,3-dihydro-4-(4-hydroxyphenyl)-3-[(3-methoxy-1H-pyrrol-2-yl)methylene]-2H-indol-2-one]",< 0.15 µM
9,"COc1cc[nH]c1/C=C1\C(=O)Nc2ccc(NC(=O)Cc3cccs3)c(-c3ccc(O)cc3)c21 [OO, (Z)-N-[2,3-Dihydro-4-(4-hydroxyphenyl)-3-[(3-methoxy-1H-pyrrol-2-yl)methylene]-2-oxo-1H-indol-5-yl]-2-thiopheneacetamide]",< 0.15 µM
10,"COc1cc[nH]c1/C=C1\C(=O)Nc2ccc(N)c(-c3ccccc3)c21 [PP, (Z)-5-Amino-1,3-dihydro-3-[(3-methoxy-1H-pyrrol-2-yl)methylene]-4-phenyl-2H-indol-2-one]",< 0.15 µM
11,"COc1cc[nH]c1/C=C1\C(=O)Nc2ccc(NC(=O)Cc3cccs3)c(-c3ccc4[nH]ccc4c3)c21 [QQ, (Z)-N-[2,3-dihydro-4-(5-indolyl)-3-[(3-methoxy-1H-pyrrol-2-yl)methylene]-2-oxo-1H-indol-5-yl]-2-thiopheneacetamide]",< 0.15 µM
12,"COC(=O)c1ccc(-c2c([N+](=O)[O-])ccc3c2/C(=C/c2[nH]ccc2OC)C(=O)N3)cc1 [RR, (Z)-4-[2,3-Dihydro-3-[(3-methoxy-1H-pyrrol-2-yl)methylene]-5-nitro-2oxo-1H-indol-4-yl]-benzoic acid methyl ester]",< 0.15 µM
13,"COC(=O)c1ccc(-c2c(N)ccc3c2/C(=C/c2[nH]ccc2OC)C(=O)N3)cc1 [SS, (Z)-4-[5-Amino-2,3-dihydro-3-[(3-methoxy-1H-pyrrol-2-yl)methylene]-2-oxo-1H-indol-4-yl]-benzoic acid methyl ester]",< 0.15 µM
14,"COc1cc[nH]c1/C=C1\C(=O)Nc2cccc(-c3cccc4[nH]ccc34)c21 [TT, (Z)-1,3-Dihydro-4-(4-indolyl)-3-[(3-methoxy-1H-pyrrol-2-yl)methylene]-2H-indol-2-one]",< 0.15 µM
15,"COc1cc[nH]c1/C=C1\C(=O)Nc2cccc(-c3ccc4cc[nH]c4c3)c21 [UU, (Z)-1,3-Dihydro-4-(6-indolyl)-3-[(3-methoxy-1H-pyrrol-2-yl)methylone]-2H-indol-2-one]",< 0.15 µM
16,"COc1cc[nH]c1/C=C1\C(=O)Nc2ccc(NC(=O)Cc3cccs3)c(-c3ccc4cc[nH]c4c3)c21 [VV, (Z)-N-[2,3-Dihydro-4-(6-indolyl)-3-[(3-methoxy-1H-pyrrol-2-yl)methylene]-2-oxo-1H-indol-5-yl]-2-thiopheneacetamide]",< 0.15 µM
17,"COC(=O)c1ccc(-c2c(NC(=O)Cc3cccs3)ccc3c2/C(=C/c2[nH]ccc2OC)C(=O)N3)cc1 [WW, (Z)-4-[2,3-Dihydro-3-[(3-methoxy-1H-pyrrol-2-yl)methylene]-2-oxo-5-[(2-thienylacetyl)amino]-1H-indol-4-yl]-benzoic Acid Methyl Ester]",< 0.15 µM
18,"COc1cc[nH]c1/C=C1\C(=O)Nc2ccc(NC(=O)Cc3cccs3)c(-c3ccc(C(=O)O)cc3)c21 [XX, (Z)-4-[2,3-Dihydro-3-[(3-methoxy-1H-pyrrol-2-yl)methylene]-2-oxo-5-[(2-thienylacetyl)amino]-1H-indol-4-yl]-benzoic acid]",< 0.15 µM

# System: TNF-α
# Assay: U937 Cell-Based Assay, TNF-α ELISA after LPS stimulation
# Settings: Homo sapiens, U-937, read-out: IC50 in U837 Cells TNF, PMA-differentiated U937 cells, 1 hour preincubation, 24 hours, supernatant ELISA
# Description: (§1) U937 Cell-Based Assay The U937 cells, a human monocyte/macrophage cell line, was obtained from the ATTC and grown in the recommended medium. These cells when stimulated with lipopolysaccharide (LPS) release TNF, another inflammatory mediator implicated in the JNK pathway ([…] et al., supra) and IL-6. In this assay the ability of a test compound to block TNF expression is evaluated. The U937 cells were suspension cells which when stimulated with phorbol myristate acetate (PMA) (Sigma, St. Louis, Mo.) became adherent. After PMA stimulation the cells were washed in cell culture medium and plated at 1×10^5 cells/well in 96 well plates. The following day the test compounds and dexamethasone control (Sigma, St. Louis, Mo.) were added to the cells for 1 hour of preincubation. Then the cells were stimulated with LPS (Sigma, St. Louis, Mo.). After an additional 24 hours of incubation the supernatants were removed and assayed for TNF-α and IL-6 by ELISA. The IL-6 ELISA was run as described previously for the MG63 assay. […] The intensity of the color (measured at 450 nm) is proportional to the amount of TNF-α or IL-6 produced by the U937 cells upon exposure to LPS and the test compounds. […] IC50 values for each test compound were determined from the linear regression of a plot of the logarithm of the concentration of compound versus amount of TNF-α or IL-6 secreted. […]
row,Structure (SMILES),IC50
1,"Nc1cccc(-c2cccc3c2/C(=C/c2ccc[nH]2)C(=O)N3)c1 [D, (Z)-4-(3-Aminophenyl)-1,3-dihydro-3-[(1H-pyrrol-2-yl)methylene]-2H-indol-2-one hydrochloride salt]",1.17e+06 pM
2,"COC(=O)c1ccc(-c2c(NC(=O)Cc3cccs3)ccc3c2/C(=C/c2[nH]ccc2OC)C(=O)N3)cc1 [WW, (Z)-4-[2,3-Dihydro-3-[(3-methoxy-1H-pyrrol-2-yl)methylene]-2-oxo-5-[(2-thienylacetyl)amino]-1H-indol-4-yl]-benzoic Acid Methyl Ester]",1.35e+06 pM

# System: IL-6
# Assay: U937 Cell-Based Assay, IL-6 ELISA after LPS stimulation
# Settings: Homo sapiens, U-937, PMA-differentiated U937 cells, 1 hour preincubation, 24 hours, supernatant ELISA, read-out: IC50 (pM) in U837 Cells IL6
# Description: as §1
row,Structure (SMILES),IC50
1,"Nc1cccc(-c2cccc3c2/C(=C/c2ccc[nH]2)C(=O)N3)c1 [D, (Z)-4-(3-Aminophenyl)-1,3-dihydro-3-[(1H-pyrrol-2-yl)methylene]-2H-indol-2-one hydrochloride salt]",6.33e+06 pM
2,"COC(=O)c1ccc(-c2c(NC(=O)Cc3cccs3)ccc3c2/C(=C/c2[nH]ccc2OC)C(=O)N3)cc1 [WW, (Z)-4-[2,3-Dihydro-3-[(3-methoxy-1H-pyrrol-2-yl)methylene]-2-oxo-5-[(2-thienylacetyl)amino]-1H-indol-4-yl]-benzoic Acid Methyl Ester]",7.8e+06 pM

# From patent publication US6307056A, “4-aryloxindoles” (Hoffman-La Roche Inc., priority 1999, dated 2001)
